In US11632973B2, “Composition comprising taste modulation compounds, their use and foodstuff comprising them” (V. MANE FILS, priority 2015, dated 2023):
Entries after “also recorded” stand apart in the source; their conditions may differ.

Assays:
Assay type in all cases: in vivo
panelists = experiment: Various lactams added to cheese sauce, saltiness evaluation (Deviation from Reference); conditions: for perception of creaminess / perception of saltiness: cheese sauce comprising the compound, compared to the control; for Test Effects Taster 1 / Test Effects Taster 2 / Test Effects Taster 3 / Test Effects Taster 4: cheese sauce plus 5 ppm compound, compared with cheese sauce alone
Description: Epsilon-caprolactam, 2-piperidone, and N-methylcaprolactam were added to cheese sauce.
All cheese sauce samples were served at 21° C. Samples were stirred by hand prior to portioning to ensure even distribution of components. Approximately 9 ml of cheese sauce was served into odorless, translucent, one-ounce cups labeled with three-digit codes and capped with a lid. The samples were portioned out approximately 45 minutes prior to evaluation.
Panelists evaluated all samples in fully enclosed partitioned booths under white lights. Fizz NETWORK Software Acquisitions Biosystemes 2.47B was used for data collection. Each panelist was provided with filtered water for rinsing and instructed to follow a strict rinsing procedure. The rinsing protocol required panelists to rinse prior to tasting the first sample, and after tasting each sample.
Samples were evaluated using a Deviation from Reference (DFR) method. Panelists were given an identified reference labeled “000” and a coded sample simultaneously. The coded sample was either a blind, coded reference or a coded test sample. The panelists were instructed to taste the reference (000) first and mentally evaluate its SALTINESS intensity. Panelists were then instructed to taste and rate the coded sample's intensity for SALTINESS compared to the identified reference. Sample sets were given to the panelists in balanced, randomized order. A one-minute wait period was enforced between sample sets to reduce flavour carryover.
Panelists rated SALTINESS intensity difference from the reference using a 9-pt scale anchored with the following descriptors: (−4) Extremely less than Reference, (0) Same as Reference, (4) Extremely more than Reference. Number values were NOT shown on the scale. Statistical mean differences were calculated using one-way ANOVA using Fizz Calculations Biosystemes 2.47B. A significance level of p≤0.05 was set for statistical tests. Compared to the control the perceptions of saltiness and creaminess in the cheese sauce comprising epsilon-caprolactam, 2-piperidone, and N-methylcaprolactam is increased.

expert tasters [1] = experiment: Effect on sweetness perception of Rebaudioside-A in water; conditions: for Taster Observations Taster 1 / Taster Observations Taster 2 / Taster Observations Taster 3 / Taster Observations Taster 4: Reb-A 250 ppm in water, TMC level 5 ppm; for bitter interference: Rebaudioside-A at 250 ppm, 5 ppm compound; for perception of sweetness: products with high intensity sweetener, four expert tasters, vs control
Description: The taste perception of the products containing the high intensity sweeteners without epsilon-caprolactam or 2-piperidone (Control) is compared with the same product (Test) containing epsilon-caprolactam or 2-piperidone. […] When a tasting solution is dosed with Rebaudioside-A at 250 ppm, with either epsilon-caprolactam or 2-piperidone at each 5 ppm, “bitter interference” and brightens pure sweetness are reduced.

expert tasters [2] = experiment: as above
[3] = Reb-A 25 ppm in water, TMC level 5 ppm

| Compound | perception of creaminess (panelists) | perception of saltiness (panelists) | Test Effects Taster 1 (panelists) | Test Effects Taster 2 (panelists) | Test Effects Taster 3 (panelists) | Test Effects Taster 4 (panelists) | Taster Observations Taster 1 (expert tasters [1]) | Taster Observations Taster 2 (expert tasters [1]) | Taster Observations Taster 3 (expert tasters [1]) | Taster Observations Taster 4 (expert tasters [1]) | bitter interference (expert tasters [1]) | perception of sweetness (expert tasters [1]) | Taster Observations Taster 1 (expert tasters [2]; [3]) | Taster Observations Taster 2 (expert tasters [2]; [3]) | Taster Observations Taster 3 (expert tasters [2]; [3]) | Taster Observations Taster 4 (expert tasters [2]; [3]) | sweetness (expert tasters [2]; Rebaudioside-A at 25 ppm, 5 ppm compound) |
| --- | --- | --- | --- | --- | --- | --- | --- | --- | --- | --- | --- | --- | --- | --- | --- | --- | --- |
| CN1CCCCCC1=O [N-methylcaprolactam] | increased | increased | Slight increase in saltiness | Unclean; also recorded: Slightly bitter | Bitter; also recorded: Increased saltiness | Least effective of three | – | – | – | – | – | – | – | – | – | – | – |
| O=C1CCCCN1 [2-piperidone] | increased | increased | Delayed saltier; also recorded: More dairy impact | Increased saltiness; also recorded: Increased creaminess | Saltier; also recorded: Creamier | Clean sweet; also recorded: Stronger sweet | clean sweet,; also recorded: control | clean sweet,; also recorded: no lingering | clean sweet,; also recorded: no bitter,; also recorded: not linger | clean sweet,; also recorded: stronger sweet | reduced | purified and amplified | sweeter,; also recorded: clean | clean sweet,; also recorded: no bitter | no bitter | best - sweetest,; also recorded: clean | purified and amplified |
| O=C1CCCCCN1 [epsilon-caprolactam] | increased | increased | Slightly bitter; also recorded: Increased saltiness | Sweeter with less linger | Cleaner; also recorded: Less lingering; also recorded: Sweeter upfront | Cleaner; also recorded: Less lingering; also recorded: Sweeter upfront | sweeter, less; also recorded: lingering,; also recorded: slightly bitter | less linger | sweeter; also recorded: cleaner,; also recorded: less lingering | sweeter upfront,; also recorded: cleaner,; also recorded: less lingering | reduced | purified and amplified | sweet,; also recorded: slightly bitter | dirty,; also recorded: unclean | – | slightly higher; also recorded: sweet | – |
